This is an account of results in US8604207B2, “Nitrogenous heterocyclic derivative and medicine containing the same as an active ingredient” (Ono Pharmaceutical Co., Ltd., priority 2004, dated 2013).

A short description of data set [1]: Stability test in liver microsome of monkey. The settings on record: liver microsome of monkey 1 mg/mL, test compound 5 μmol/L, 30 minutes at 37° C.
The next data set has as its system human cultured PBMC. Nature of the data set: Cell migration test (in vitro, human MIP-1β-induced migration of human cultured PBMC). The data set is classed as cell-based. The settings on record: human MIP-1β in lower well, incubated 1.5 hours, average value (n=3), read-out: IC50 value, inhibitory activity against human MIP-1β-induced cell migration of human cultured PBMC. The protocol: Preparation of PBMC (Peripheral Blood Mononuclear Cell)
Human venous blood (50 mL) collected by using syringe with heparin sodium (final concentration: 10 U/mL, heparin sodium injection 1000 U/mL, Shimizu Pharmaceutical Co., Ltd.) was stored into 50 mL of conical tube made by polypropylene. To a Lymphoprep tube (HYCOMED PHARMA, Cat. No 1019818), 16.5 mL of DPBS (−) (GIBCO, Cat No. 14190-136) and a blood sample were added, jiggled several times, then centrifuged at 3000 rpm for 10 minutes at room temperature. […]
50 μL of 5×10^5 cells of the human PBMC suspension (culture medium) and 50 μL of the solution of the test compound (0-2 μmol/L: double concentration of a final concentration) were added to an upper well of transwell (coster), and 300 μL of 60 nmol/L of the human MIP-1β (Pepro tech, Cat. No. 300-09) and 300 μL of a double concentration of the solution of the test compound were added to a lower well. […] 100 μL of the solution was transferred to white 96 well plate for fluorescence from lower well by pipetting, an amount of cells was measured by using Celltiter Glo (Promega) (a measurement of ATP), Cell migration inhibition ratio was calculated by the following calculating formula. The value of IC50 was calculated from cell migration inhibition ratio of each concentration. […]

Where a name gives a salt, the structure may show the parent alone.

In the case of `CC(=O)Nc1cc(NC(=O)N(c2ccccc2)C2CCN(Cc3ccc(Oc4ccc(NS(C)(=O)=O)cc4)nc3)CC2)ccc1F` [Example 7(83), N-[2-fluoro-5-({[{1-[(6-{4-[(methylsulfonyl)amino]phenoxy}-3-pyridinyl)methyl]-4-piperidinyl}(phenyl)amino]carbonyl}amino)phenyl]acetamide hydrochloride (or dihydrochloride)], the “residual ratio of the unmetabolite” value in data set [1] is recorded as 88%.

As to `CS(=O)(=O)Nc1ccc(Oc2ccc(CN3CCC(N(C(=O)Nc4ccc(F)cc4)c4ccsc4)CC3)cn2)cc1` [Example 7(29), N-(4-{[5-({4-[{[(4-fluorophenyl)amino]carbonyl}(3-thienyl)amino]-1-piperidinyl}methyl)-2-pyridinyl]oxy}phenyl)methanesulfonamide hydrochloride (or dihydrochloride)], the IC50 with human cultured PBMC worked out at 1.2 nM.
